Bounds are passed on as bounds.

The target in the assay is T1, mAChR M1 (UniProt P11229).
T1 sequence (P11229 1-460): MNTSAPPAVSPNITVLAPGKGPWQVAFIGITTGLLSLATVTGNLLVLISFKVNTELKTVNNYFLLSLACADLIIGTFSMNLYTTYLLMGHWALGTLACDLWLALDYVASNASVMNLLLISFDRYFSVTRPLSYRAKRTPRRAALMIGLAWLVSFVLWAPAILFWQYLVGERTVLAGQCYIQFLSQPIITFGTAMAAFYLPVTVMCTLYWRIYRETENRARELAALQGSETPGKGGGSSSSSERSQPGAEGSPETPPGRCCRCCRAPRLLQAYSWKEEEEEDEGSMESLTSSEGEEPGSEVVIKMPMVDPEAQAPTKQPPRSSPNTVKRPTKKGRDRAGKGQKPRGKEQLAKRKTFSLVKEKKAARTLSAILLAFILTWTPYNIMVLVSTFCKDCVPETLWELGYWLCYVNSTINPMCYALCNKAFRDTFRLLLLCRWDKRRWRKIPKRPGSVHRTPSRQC
The assay is described as follows: mAChR M1 cell-based functional assay (calcium mobilization, potentiation of EC20 acetylcholine response). Conditions: for Emax (%): % ACh maximum at 30 μM, mAChR M1-expressing CHO-K1 cells, calcium flux; for pEC50 / EC50: positive allosteric modulation of EC20 ACh response, mAChR M1 CHO-K1 cells; for pEC50: <5 estimated where no plateau; for EC50: >10 μM estimated where no plateau, read-out: EC50.

Consider `CN(C)c1ccc(-c2ccc(CN3Cc4ncccc4C3=O)c(F)c2)cn1` [Example B39], for which the “Emax (%)” value is listed as 31%; the pEC50 (usually −log10 of the EC50, conventionally taken in molar units) is listed as 5.98; the EC50 (as a rule, the concentration giving half of the maximal effect) was 1.05 µM.

For `Cn1cc2cc(-c3ccc(CN4Cc5ncccc5C4=O)c(F)c3)ccc2n1` [Example B1], the “Emax (%)” value amounted to 82%, the pEC50 is recorded as 5.96 and the EC50 was 1.1 µM.

Take `O=S1(=O)c2ccccc2CN1Cc1ccc(Oc2ccccc2)cc1` [Example B124]: the “Emax (%)” value is under 30%, the pEC50 is recorded as under 5.00 and the EC50 was over 10 µM.

`O=C1c2cccnc2CN1Cc1ccc(-c2ccnc3ccccc23)cc1F` [Example B45]: the “Emax (%)” value came to 44%, the pEC50 was 5.43 and the EC50 was 3.72 µM.

`Cn1cc2c(-c3ccc(CN4Cc5ncccc5C4=O)c(F)c3)cccc2n1` [Example B32]: the “Emax (%)” value amounted to 74%, the pEC50 is 6.07 and the EC50 was 0.851 µM.

`Cn1cc(-c2ccc(CN3Cc4ccncc4C3=O)c(F)c2)cn1` [Example B8]: the “Emax (%)” value was determined as 79%, the pEC50 was 5.55 and the EC50 was 2.8 µM.

In the case of `Cn1cc2cc(-c3ccc(F)c(CN4Cc5ncccc5C4=O)c3)ccc2n1` [Example B111], the “Emax (%)” value turned out to be 42%, the pEC50 is 5.63 and the EC50 is 2.34 µM.

With `CN(C)c1ccc(-c2ccc(CN3Cc4ncccc4C3=O)c(F)c2)cc1` [Example B52], the “Emax (%)” value is on record as 53%, the pEC50 is reported as under 5.00 and the half-maximal effective concentration (EC50) was over 10 µM.

On to `O=C1c2cccnc2CN1Cc1ccc(-c2cccc3cccnc23)cc1F` [Example B38], for which the “Emax (%)” value worked out at 26%, the pEC50 is under 5.00 and the EC50 was over 10 µM.

On to `O=C1c2cccnc2CN1Cc1ccc(-c2cn3ccnc3cn2)cc1F` [Example B90], for which the “Emax (%)” value worked out at 53%, the pEC50 was under 5.00 and the EC50 was over 10 µM.

For the compound `Cn1cc(-c2ccc(CN3Cc4cccnc4C3=O)c(F)c2)cn1` [Example B25], the “Emax (%)” value amounted to 66%, the negative-log EC50 (pEC50) was under 5.00 and the EC50 was over 10 µM.

Consider `O=S1(=O)c2ccccc2CN1Cc1ccc(-c2cnns2)cc1` [Example B117], for which the “Emax (%)” value is on record as under 30%, the pEC50 is on record as under 5.00 and the half-maximal effective concentration (EC50) is over 10 µM.

On to `O=C1c2cccnc2CN1Cc1c(F)cc(-c2ccc3c(c2)OCCO3)cc1F` [Example B94], for which the “Emax (%)” value worked out at 36%, the pEC50 is on record as 6.71 and the EC50 is 0.195 µM.

`O=C1c2cccnc2CN1Cc1c(F)cc(-c2ccc3c(c2)C2(OCCO2)C(=O)N3)cc1F` [Example B101]: the “Emax (%)” value is 48%, the pEC50 is given as under 5.00 and the EC50 is over 10 µM.

As to `Cn1cc2ccc(-c3ccc(CN4Cc5ncccc5C4=O)c(F)c3)cc2n1` [Example B35], the “Emax (%)” value worked out at 80%, the pEC50 was 5.71 and the EC50 was 1.95 µM.

Consider `COc1ncccc1-c1ccc(CN2Cc3ncccc3C2=O)c(F)c1` [Example B33], for which the “Emax (%)” value stood at 31%, the pEC50 was under 5.00 and the EC50 was over 10 µM.

Take `Cn1ccc2cc(-c3ccc(CN4Cc5ncccc5C4=O)c(F)c3)ccc21` [Example B127]: the “Emax (%)” value is reported as under 30%, the pEC50 was under 5.00 and the EC50 was over 10 µM.

In the case of `O=C1c2cccnc2CN1Cc1ccc(-c2ccc3cc[nH]c3c2)cc1F` [Example B28], the “Emax (%)” value was found to be 34%, the pEC50 was under 5.00 and the 50% effective concentration (EC50) is over 10 µM.

Turning to `O=C1c2cccnc2CN1Cc1c(F)cc(-c2ccc3nccn3c2)cc1F` [Example B80], the “Emax (%)” value is 57%, the pEC50 was 6.07 and the EC50 was 0.851 µM.

As to `Cc1noc(-c2ccc(CN3Cc4ccccc4S3(=O)=O)cc2)n1` [Example B118], the “Emax (%)” value is listed as under 30%, the pEC50 is given as under 5.00 and the EC50 was over 10 µM.

Consider `Cn1cc2c(-c3cc(F)c(CN4Cc5ncccc5C4=O)c(F)c3)cccc2n1` [Example B81], for which the “Emax (%)” value was 80%, the pEC50 was 6.80 and the EC50 was 0.158 µM.

Consider `Cc1cc(-c2cnc(Cl)c(C)c2)ccc1CN1Cc2cccnc2C1=O` [Example B83], for which the “Emax (%)” value is recorded as 34%, the pEC50 is reported as under 5.00 and the EC50 is over 10 µM.

For the compound `Cn1cc(-c2ccc(CN3Cc4ccccc4C3=O)nc2)cn1` [Example B15], the “Emax (%)” value was 37%, the pEC50 is listed as under 5.00 and the EC50 is over 10 µM.

Consider `Cc1nc(-c2ccc(CN3Cc4ccccc4S3(=O)=O)cc2)cs1` [Example B116], for which the “Emax (%)” value is on record as under 30%, the pEC50 is given as under 5.00 and the EC50 is over 10 µM.

Take `O=C1c2ncccc2CN1Cc1ccc(-c2ccc3cnccc3c2)cc1Cl` [Example B69]: the “Emax (%)” value amounted to 52%, the pEC50 is given as 5.87 and the EC50 was 1.35 µM.

In the case of `COc1ccc(-c2ccc(CN3Cc4cccnc4C3=O)c(Cl)c2)cc1` [Example B76], the “Emax (%)” value is given as 35%, the pEC50 is 5.83 and the EC50 is 1.48 µM.

For the compound `O=C1c2ccccc2CN1Cc1ccc(-c2ccc3cnccc3c2)cc1F` [Example B6], the “Emax (%)” value is listed as 38%, the pEC50 is reported as 5.59 and the EC50 is 2.6 µM.

Regarding `Cn1cc(-c2cnc(CN3Cc4cccnc4C3=O)c(F)c2)cn1` [Example B20], the “Emax (%)” value amounted to 43%, the negative-log EC50 (pEC50) is on record as under 5.00 and the EC50 was over 10 µM.

Regarding `Cc1cc(-c2ccncc2)ccc1CN1Cc2cccnc2C1=O` [Example B84], the “Emax (%)” value is listed as 41%, the pEC50 is under 5.00 and the EC50 was over 10 µM.

Turning to `O=C1c2cccnc2CN1Cc1ccc(-c2cnc3ccccc3c2)cc1F` [Example B37], the “Emax (%)” value came out at 31%, the pEC50 is 6.41 and the EC50 was 0.389 µM.

In the case of `Cn1nccc1-c1ccc(CN2Cc3ccccc3C2=O)c(F)c1` [Example B19], the “Emax (%)” value is listed as 40%, the pEC50 is under 5.00 and the 50% effective concentration (EC50) is over 10 µM.

On to `Cn1cc2ccc(-c3ccc(CN4Cc5cccnc5C4=O)c(F)c3)cc2n1` [Example B72], for which the “Emax (%)” value was 79%, the pEC50 is 5.70 and the EC50 is 2 µM.

Consider `O=C1c2ncccc2CN1Cc1ccc(-c2ccc3cnccc3c2)cc1F` [Example B79], for which the “Emax (%)” value is given as 62%, the pEC50 is recorded as 5.83 and the EC50 is 1.48 µM.

`Cn1cnc2ccc(-c3ccc(CN4Cc5ncccc5C4=O)c(F)c3)cc21` [Example B54]: the “Emax (%)” value was found to be 81%, the pEC50 was 6.13 and the EC50 is 0.741 µM.

Take `O=S1(=O)c2ccccc2CN1Cc1ccc(-c2coc(-c3ccccc3)n2)cc1` [Example B120]: the “Emax (%)” value was under 30%, the pEC50 was under 5.00 and the EC50 is over 10 µM.

With `O=C1c2ncccc2CN1Cc1ccc(-c2ccncc2)cc1F` [Example B65], the “Emax (%)” value was found to be 56%, the pEC50 was under 5.00 and the EC50 is over 10 µM.

As for `O=C1c2ncccc2CN1Cc1ccc(-c2ccc3ccncc3c2)cc1F` [Example B70], the “Emax (%)” value was determined as 59%, the pEC50 is reported as 5.68 and the EC50 was 2.09 µM.

Regarding `O=C1c2cccnc2CN1Cc1ccc(-c2ccc3cncn3c2)cc1F` [Example B92], the “Emax (%)” value is on record as 62%, the pEC50 is 6.06 and the EC50 was 0.871 µM.

With `O=C1c2ccccc2CN1Cc1ccc(-c2c[nH]nc2C(F)(F)F)cc1F` [Example B16], the “Emax (%)” value was 38%, the pEC50 is listed as under 5.00 and the EC50 is over 10 µM.

Values taken from patent US10654847B2, “Substituted 2-(4-heterocyclylbenzyl)isoindolin-1-one analogs as positive allosteric modulators of the muscarinic acetylcholine receptor M1” (Vanderbilt University, priority 2011, dated 2020).
